Like-named read-outs stand apart in the source and are kept apart here.
How the values were obtained:
[1] = biological target: T1, Calmodulin (CaM) (Homo sapiens, UniProt P0DP23); details: literature; read-out: published Kd values, calmodulin-calcium ion interaction; cited from earlier work
T1 construct: purchased Sigma, St. Louis, Mo

[2] = biological target: T1, Calmodulin (CaM); assay: BSI free-solution CaM-Ca^2+ interaction; type: binding; details: for Kd: 5 μM CaM, pH 7.5, 25° C.
Protocol: Homogeneous, label-free CaM-Ca^2+ interactions are quantified with BSI by real-time monitoring the sequential reactions of a constant concentration of 5 μM CaM with Ca^2+ solutions increasing in concentrations from 12.5-100 μM (FIG. 24A). Here CaM was buffered at pH=7.5 with 0.1M HEPES and 0.1M KCl, with its concentration held constant at 5 μM. In this aspect, the CaM solution contained a small amount of EGTA to chelate any free Ca^2+. The reactions were carried out in the same microfluidic chip molded in PDMS with the temperature fixed at 25° C. A 5 μM CaM solution and a 100 μM Ca^2+ solution both consisting of excess EGTA (i.e., 400 μM), served as the control.
Kinetic analysis using a single exponential gives rise to a plot of observed rates versus Ca^2+ concentration that is linear. A least squares analysis of the linear plot yields the slope, intercept, and their respective errors. […] Without wishing to be bound by theory, it is believed that the disparity in these two values was due likely to a less than optimal approach to fitting the kinetic data and the RI background present from unreacted ligand, particularly at high concentrations.
These experiments were conducted at 25±0.01° C. maintained by a thermoelectric temperature controller (MELCOR, Trenton, N.J.) coupled to a Peltier device. Binding experiments were monitored in real-time at frequencies ca. 50-100 Hz.
CaM was buffered at a pH=7.5 with 0.1M HEPES and 0.1M KCl with its concentration held constant throughout the experiment at 5 μM. The CaM solution contained a small amount of EGTA to chelate any free Ca^2+. BSI monitored, in real-time, the sequential reactions of 5 μM CaM with concentrations of Ca^2+ ranging from 12.5-100 μM.

[Ca+2] [Ca^2+]
Kd [1]: 1 to 10 µM
control: change in signal above that observed in the absence of excess EGTA at equivalent concentrations ([2]; 5 μM CaM and 100 μM Ca^2+, both with excess EGTA (400 μM)): < 3%
Kd ([2]; 12.5-100 μM Ca^2+, read-out: Kd CaM-Ca^2+, kinetic analysis (observed rates versus Ca^2+ concentration)): 3.36 µM
Kd ([2]; read-out: Kd CaM-Ca^2+, steady-state values analysed by Prism): 17.8 µM
